Where two headings read alike, the source gives them in different places.
Tests used:
HCV genotype 1b replicon = experiment: HCV replicon assay, genotype 1b replicon EC50; type: cell-based, Hepatitis C virus; details: Hepatitis C virus, read-out: EC50 [gt-1b]
In short: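 Assay format: compound titration on stable replicon cells, no G418 during treatment, 24 to 48 hours. Lysates were assayed for replicon RNA (hybridization/protection or TaqMan) or luciferase; EC50 fitted to four parameters against DMSO.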

[1] = target: HCV NS3/4A protease genotype 1b (Hepatitis C virus genotype 1b, UniProt P26663); experiment: HCV NS3/4A protease time-resolved fluorescence (TRF) assay, Ki against genotype 1b; type: biochemical
In short: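 Enzyme was pre-incubated 30 min with inhibitor in HEPES pH 7.5 buffer (150 mM NaCl, 15% glycerol, 10 mM DTT). Reaction ran 2.5 h at room temperature with 25 nM europium TRF peptide substrate, read at ex 340/em 615 nm. Enzyme levels: 0.2 nM (1b), 0.4 nM (A156T), 0.025 nM (3a). Ki came from four-parameter IC50 via IC50=Ki(1+[S]/KM).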

[2] = IC50 [gt-1b], NS3/4A protease TRF assay, genotype 1b enzyme 0.2 nM
[3] = IC50 [gt-1b] (nM), NS3/4A genotype 1b, enzyme 0.2 nM, K+ salt
[4] = IC50 [gt-1b] (nM), NS3/4A genotype 1b, enzyme 0.2 nM

SMILES | EC50 (HCV genotype 1b replicon; genotype 1b replicon) [pM] | IC50 [1, 4] [nM] | also measured
Cc1nc2ccc(F)cc2c2c1O[C@]1(CC2)C[C@H]2C(=O)N[C@]3(C(=O)NS(=O)(=O)C4(C)CC4)C[C@H]3/C=C\CCCCC[C@H](NC(=O)OC(C)(C)C(F)(F)F)C(=O)N2C1 [Example 405, 1,1,1-trifluoro-2-methylpropan-2-yl [(2R,6S,12Z,13aS,14aR,16aS)-9′-fluoro-5′-methyl-14a-{[(1-methylcyclopropyl)sulfonyl]carbamoyl}-5,16-dioxo-1,1′,2′,5,6,7,8,9,10,11,13a,14,14a,15,16,16a-hexadecahydrospiro[cyclopropa[e]pyrrolo[1,2-a][1,4]diazacyclopentadecine-2,3′-pyrano[2,3-c]quinolin]-6-yl]carbamate] |  |  | EC50 (HCV genotype 1b replicon; HCV replicon, genotype 1b): 813 pM; IC50 [1, 2]: 0.021 nM
COc1ccc2nc(C(F)F)c3c(c2c1)CC[C@]1(C[C@H]2C(=O)N[C@]4(C(=O)NS(=O)(=O)C5(C)CC5)C[C@H]4/C=C\CCCCC[C@H](NC(=O)OC(C)(C)C)C(=O)N2C1)O3 [Example 10, tert-butyl ((2R,6S,13aS,14aR,16aS,Z)-5′-(difluoromethyl)-9′-methoxy-14a-(((1-methylcyclopropyl)sulfonyl)carbamoyl)-5,16-dioxo-1′,2′,3,5,6,7,8,9,10,11,13a,14,14a,15, 16,16a-hexadecahydro-1H-spiro[cyclopropa[e]pyrrolo[1,2-a][1,4]diazacyclopentadecine-2,3′-pyrano[2,3-c]quinolin]-6-yl)carbamate] |  |  | EC50 (HCV genotype 1b replicon; genotype 1b replicon, K+ salt): 1110 pM; IC50 [1, 3]: 0.013 nM
COc1ccc2nc(C(C)C)c3c(c2c1)CC[C@]1(C[C@H]2C(=O)N[C@]4(C(=O)NS(=O)(=O)C5(C)CC5)C[C@H]4/C=C\CCCCC[C@H](NC(=O)OCC(C)C)C(=O)N2C1)O3 [Example 154, 2-methylpropyl [(2R,6S,12Z,13aS,14aR,16aS)-9′-methoxy-14a-{[(1-methylcyclopropyl)sulfonyl]carbamoyl}-5,16-dioxo-5′-(propan-2-yl)-1,1′,2′,5,6,7,8,9,10,11,13a,14,14a,15,16,16a-hexadecahydrospiro[cyclopropa[e]pyrrolo[1,2-a][1,4]diazacyclopentadecine-2,3′-pyrano[2,3-c]quinolin]-6-yl]carbamate] | 1000 | 0.014 | 
Cc1nc2ccc(OCC(F)(F)F)cc2c2c1O[C@]1(CC2)C[C@H]2C(=O)N[C@]3(C(=O)NS(=O)(=O)C4(C)CC4)C[C@H]3/C=C\CCCCC[C@H](NC(=O)OC(C)(C(F)(F)F)C(F)(F)F)C(=O)N2C1 [Example 308, 1,1,1,3,3,3-hexafluoro-2-methylpropan-2-yl [(2R,6S,12Z,13aS,14aR,16aS)-5′-methyl-14a-{[(1-methylcyclopropyl)sulfonyl]carbamoyl}-5,16-dioxo-9′-(2,2,2-trifluoroethoxy)-1,1′,2′,5,6,7,8,9,10,11,13a,14,14a,15,16,16a-hexadecahydrospiro[cyclopropa[e]pyrrolo[1,2-a][1,4]diazacyclopentadecine-2,3′-pyrano[2,3-c]quinolin]-6-yl]carbamate] | 416000 | 0.006 | 
COc1ccc2nc(C)c3c(c2c1)C(F)(F)C[C@]1(C[C@H]2C(=O)N[C@]4(C(=O)NS(=O)(=O)C5(C)CC5)C[C@H]4/C=C\CCCCC[C@H](NC(=O)OC4CCCC4)C(=O)N2C1)O3 [Example 260, cyclopentyl [(2S,6S,12Z,13aS,14aR,16aS)-1′,1′-difluoro-9′-methoxy-5′-methyl-14a-{[(1-methylcyclopropyl)sulfonyl]carbamoyl}-5,16-dioxo-1,1′,2′,5,6,7,8,9,10,11,13a,14,14a,15,16,16a-hexadecahydrospiro[cyclopropa[e]pyrrolo[1,2-a][1,4]diazacyclopentadecine-2,3′-pyrano[2,3-c]quinolin]-6-yl]carbamate] | 5220 | 0.006 | 
COC(=O)N[C@H]1CCCCC/C=C\[C@@H]2C[C@@]2(C(=O)NS(=O)(=O)C2(C)CC2)NC(=O)[C@@H]2C[C@]3(CCc4c(c(C5CC5)nc5cc(OC)ccc45)O3)CN2C1=O [Example 139, methyl [(2R,6S,12Z,13aS,14aR,16aS)-5′-cyclopropyl-8′-methoxy-14a-{[(1-methylcyclopropyl)sulfonyl]carbamoyl}-5,16-dioxo-1,1′,2′,5,6,7,8,9,10,11,13a,14,14a,15,16,16a-hexadecahydrospiro[cyclopropa[e]pyrrolo[1,2-a][1,4]diazacyclopentadecine-2,3′-pyrano[2,3-c]quinolin]-6-yl]carbamate] | 8090 | 0.127 | 
Cc1nc2cc(F)c(F)cc2c2c1O[C@]1(CC2)C[C@H]2C(=O)N[C@]3(C(=O)NS(=O)(=O)C4(C)CC4)C[C@H]3/C=C\CCCCC[C@H](NC(=O)OC3CCCC3)C(=O)N2C1 [Example 193, cyclopentyl [(2R,6S,12Z,13aS,14aR,16aS)-8′,9′-difluoro-5′-methyl-14a-{[(1-methylcyclopropyl)sulfonyl]carbamoyl}-5,16-dioxo-1,1′,2′,5,6,7,8,9,10,11,13a,14,14a,15,16,16a-hexadecahydrospiro[cyclopropa[e]pyrrolo[1,2-a][1,4]diazacyclopentadecine-2,3′-pyrano[2,3-c]quinolin]-6-yl]carbamate] |  |  | EC50 (HCV genotype 1b replicon; genotype 1b replicon, K+ salt): 31100 pM; IC50 [1, 3]: 0.007 nM
CC(C)(C)OC(=O)N[C@H]1CCCCC/C=C\C2CC2(C(=O)NS(=O)(=O)C2(C)CC2)NC(=O)C2C[C@]3(CCc4c(c(C5CC5)nc5ccc(F)cc45)O3)CN2C1=O (stereo partly drawn) [Example 68, tert-butyl [(2R,6S,12Z)-5′-cyclopropyl-9′-fluoro-14a-{[(1-methylcyclopropyl)sulfonyl]carbamoyl}-5,16-dioxo-1,1′,2′,5,6,7,8,9,10,11,13a,14,14a,15,16,16a-hexadecahydrospiro[cyclopropa[e]pyrrolo[1,2-a][1,4]diazacyclopentadecine-2,3′-pyrano[2,3-c]quinolin]-6-yl]carbamate] | 980 | 0.016 | 
COc1ccc2nc(C3CC3)c3c(c2c1)C(F)(F)C[C@]1(C[C@H]2C(=O)N[C@]4(C(=O)NS(=O)(=O)C5(C)CC5)C[C@H]4/C=C\CCCCC[C@H](NC(=O)OCC(C)C)C(=O)N2C1)O3 [Example 248, 2-methylpropyl [(2S,6S,12Z,13aS,14aR,16aS)-5′-cyclopropyl-1′,1′-difluoro-9′-methoxy-14a-{[(1-methylcyclopropyl)sulfonyl]carbamoyl}-5,16-dioxo-1,1′,2′,5,6,7,8,9,10,11,13a,14,14a,15,16,16a-hexadecahydrospiro[cyclopropa[e]pyrrolo[1,2-a][1,4]diazacyclopentadecine-2,3′-pyrano[2,3-c]quinolin]-6-yl]carbamate] |  |  | EC50 (HCV genotype 1b replicon; genotype 1b replicon, K+ salt): 14700 pM; IC50 [1, 3]: 0.026 nM
COc1ccc2nc(C3CC3)c3c(c2c1)[C@H](F)C[C@]1(C[C@H]2C(=O)N[C@]4(C(=O)NS(=O)(=O)C5(C)CC5)C[C@H]4/C=C\CCCCC[C@H](NC(=O)OCC(C)(C)C)C(=O)N2C1)O3 [Example 455, 2,2-dimethylpropyl [(1′R,2S,6S,12Z,13aS,14aR,16aS)-5′-cyclopropyl-1′-fluoro-9′-methoxy-14a-{[(1-methylcyclopropyl)sulfonyl]carbamoyl}-5,16-dioxo-1,1′,2′,5,6,7,8,9,10,11,13a,14,14a,15,16,16a-hexadecahydrospiro[cyclopropa[e]pyrrolo[1,2-a][1,4]diazacyclopentadecine-2,3′-pyrano[2,3-c]quinolin]-6-yl]carbamate] |  |  | EC50 (HCV genotype 1b replicon; HCV replicon, genotype 1b, K+ salt): 1550 pM; IC50 ([1]; IC50 [gt-1b], NS3/4A protease TRF assay, genotype 1b enzyme 0.2 nM, K+ salt): 0.04 nM
COCCCOc1ccc2nc(C)c3c(c2c1)CC[C@]1(C[C@H]2C(=O)N[C@]4(C(=O)NS(=O)(=O)C5(C)CC5)C[C@H]4/C=C\CCCCC[C@H](NC(=O)OC(C)(C)C)C(=O)N2C1)O3 [Example 438, tert-butyl [(2R,6S,12Z,13aS,14aR,16aS)-9′-(3-methoxypropoxy)-5′-methyl-14a-{[(1-methylcyclopropyl)sulfonyl]carbamoyl}-5,16-dioxo-1,1′,2′,5,6,7,8,9,10,11,13a,14,14a,15,16,16a-hexadecahydrospiro[cyclopropa[e]pyrrolo[1,2-a][1,4]diazacyclopentadecine-2,3′-pyrano[2,3-c]quinolin]-6-yl]carbamate] |  |  | EC50 (HCV genotype 1b replicon; HCV replicon, genotype 1b): 3500 pM; IC50 [1, 2]: 0.023 nM
COc1ccc2nc(C(F)(F)F)c3c(c2c1)[C@@H](O)C[C@]1(C[C@H]2C(=O)N[C@]4(C(=O)NS(=O)(=O)C5(C)CC5)C[C@H]4/C=C\CCCCC[C@H](NC(=O)OC(C)(C)C)C(=O)N2C1)O3 [Example 55, tert-Butyl [(1′S,2S,6S,12Z,13aS,14aR,16aS)-1′-hydroxy-9′-methoxy-14a-{[(1-methylcyclopropyl)sulfonyl]carbamoyl}-5,16-dioxo-5′-(trifluoromethyl) -1,1′,2′,5,6,7,8,9,10,11,13a,14,14a,15,16,16a-hexadecahydrospiro[cyclopropa[e]pyrrolo[1,2-a][1,4]diazacyclopentadecine-2,3′-pyrano[2,3-c]quinolin]-6-yl]carbamate] | 578 | 0.007 | 

Source: patent publication US8987195B2 (priority 2012, dated 2015)
